# Where “and” joins values, the source holds several entries; their conditions need not be identical. Identical values can stand only once.
# System: peripheral blood lymphocytes
# Experiment: Cytokinesis-block micronucleus (CBMN) assay, NNK-treated lymphocyte cultures of lung cancer cases and controls
# Format: cell-based, human
# Set-up: Control Subjects, % with ≧5 NNK-induced MN / Control Subjects, % with 0 or 2 NNK-induced NPBs / Control Subjects, % with 3 or 5 NNK-induced NPBs / Control Subjects, % with 1 NNK-induced NBUDs: concentration or dose not given beside the values; Control Subjects, % with 3 or 4 NNK-induced MN: tested at 0.24 mM
# Conditions: for NNK-induced NPBs, Mean ± SE / NNK-induced NPBs, Median / NNK-induced MN, Mean ± SE / NNK-induced MN, Median / NNK-induced NBUDs, Mean ± SE / NNK-induced NBUDs, Median: Control, 0.24 mM NNK
# Procedure: The CBMN test was performed using the cytochalasin B technique described by Fenech and Morley (22) and following recommendations from The International Collaborative Project on Micronucleus Frequency in Human Populations (HUMN Project) to measure MN, NPBs and NBUDs in untreated cells and NNK-treated cells (27). Duplicate lymphocyte cultures were prepared for each study subject. Each culture contained 2.0×10^6 cells in 5 mL RPMI 1640 medium supplemented with 100 U/mL penicillin, 100 μg/mL streptomycin, 10% fetal bovine serum, and 2 mM L-glutamine (Gibco-Invitrogen, Carlsbad, Calif.) and 1% phytohemagglutinin (Remel, Lenexa, Kans.). For the cultures treated with NNK, 24 hours after initiation, the PBLs were centrifuged and the supernatant growth medium was removed and reserved. The PBLs were resuspended in 5 mL of serum-free RPMI 1640 medium supplemented with 0.24 mM NNK (a dose previously used by us and others (23-26) (CAS No. 64091-91-4, National Cancer Institute, Midwest Carcinogen Repository, Kansas City, Mo.; purity>98%) and incubated at 37° C. in the presence of 5% CO2 for 2 hours.
# Next, the PBLs were washed twice with serum-free RPMI 1640, transferred to clean tubes and re-incubated for […] in the reserved supernatant. At 44 hours after initiation, cells were blocked in cytokinesis by adding cytochalasin B (Sigma, St. Louis, Mo.; final concentration 4 µg/mL). Similarly, cultures for the determination of spontaneous damage (untreated cells) were handled in the same manner, with the exception of treatment with NNK. The total incubation time for all cultures was 72 hours. After incubation, the cells were fixed in 3:1 methanol:glacial acetic acid, dropped onto clean microscopic slides, air-dried and stained with Giemsa stain. For each sample, 1000 binucleated cells were scored blindly using a Nikon E-400 light optical microscope following the scoring criteria outlined by HUMN Project (2,22,27); the numbers of MN, NPBs, and NBUDs per 1000 binucleated cells were recorded. For quality control, 20% of the slides were randomly selected and blindly rescored and the results compared with the original scoring.
# [1] = MN/1000 binucleated cells, 130 controls
# [2] = MN/1000 binucleated cells, 139 cases
# [3] = lymphocytes from patients with lung cancer vs controls
# [4] = per 1000 binucleated cells, 130 controls
# [5] = per 1000 binucleated cells, 139 cases
smiles,measurement,setting,value
"CN(CCCC(=O)c1cccnc1)N=O [NNK, 4-(methylnitrosamino)-1-(3-pyridyl)-1-butanone]","NNK-induced NPBs, Mean ± SE",Females,2.68 ± 0.19 per 1000 binucleated cells
same,"NNK-induced NPBs, Median",Females,2.0 per 1000 binucleated cells
same,"NNK-induced MN, Mean ± SE",History of Alcohol Use No,2.54 ± 0.15 per 1000 binucleated cells
same,"NNK-induced MN, Median",History of Alcohol Use No,3.00 per 1000 binucleated cells
same,"NNK-induced NBUDs, Mean ± SE",History of Alcohol Use No,0.14 ± 0.04 per 1000 binucleated cells
same,"NNK-induced NBUDs, Median",History of Alcohol Use No,0.00 per 1000 binucleated cells
same,"NNK-induced NPBs, Mean ± SE",History of Alcohol Use No,2.40 ± 0.13 per 1000 binucleated cells
same,"NNK-induced NPBs, Median",History of Alcohol Use No,2.00 per 1000 binucleated cells
same,"NNK-induced MN, Mean ± SE",History of Alcohol Use Yes,2.61 ± 0.15 per 1000 binucleated cells
same,"NNK-induced MN, Median",History of Alcohol Use Yes,2.00 per 1000 binucleated cells
same,"NNK-induced NBUDs, Mean ± SE",History of Alcohol Use Yes,0.11 ± 0.04 per 1000 binucleated cells
same,"NNK-induced NBUDs, Median",History of Alcohol Use Yes,0.00 per 1000 binucleated cells
same,"NNK-induced NPBs, Mean ± SE",History of Alcohol Use Yes,2.32 ± 0.12 per 1000 binucleated cells
same,"NNK-induced NPBs, Median",History of Alcohol Use Yes,2.00 per 1000 binucleated cells
same,"NNK-induced MN, Mean ± SE",Males,2.63 ± 0.11 per 1000 binucleated cells
same,"NNK-induced MN, Median",Males,3.0 per 1000 binucleated cells
same,"NNK-induced NBUDs, Mean ± SE",Males,0.12 ± 0.03 per 1000 binucleated cells
same,"NNK-induced NBUDs, Median",Males,0.0 per 1000 binucleated cells
same,"NNK-induced NPBs, Mean ± SE",Males,2.27 ± 0.10 per 1000 binucleated cells
same,"NNK-induced NPBs, Median",Males,2.0 per 1000 binucleated cells
same,"NNK-induced MN, Mean ± SE",Overall,2.62±0.10 per 1000 binucleated cells and 2.62 ± 0.1 per 1000 binucleated cells
same,"NNK-induced MN, Median",Overall,3.0 per 1000 binucleated cells and 3 per 1000 binucleated cells
same,"NNK-induced NBUDs, Mean ± SE",Overall,0.12±0.03 per 1000 binucleated cells
same,"NNK-induced NBUDs, Median",Overall,0.0 per 1000 binucleated cells and 0 per 1000 binucleated cells
same,"NNK-induced NPBs, Mean ± SE",Overall,2.38±0.09 per 1000 binucleated cells
same,"NNK-induced NPBs, Median",Overall,2.0 per 1000 binucleated cells and 2 per 1000 binucleated cells
same,"NNK-induced MN, Mean ± SE",Years smoked > 32,2.69 ± 0.12 per 1000 binucleated cells
same,"NNK-induced MN, Median",Years smoked > 32,3.0 per 1000 binucleated cells
same,"NNK-induced NBUDs, Mean ± SE",Years smoked > 32,0.13 ± 0.04 per 1000 binucleated cells
same,"NNK-induced NBUDs, Median",Years smoked > 32,0.0 per 1000 binucleated cells
same,"NNK-induced NPBs, Mean ± SE",Years smoked > 32,2.39 ± 0.09 per 1000 binucleated cells
same,"NNK-induced NPBs, Median",Years smoked > 32,2.0 per 1000 binucleated cells
same,"NNK-induced MN, Mean ± SE",Years smoked ≦ 32,2.33 ± 1.02 per 1000 binucleated cells
same,"NNK-induced MN, Median",Years smoked ≦ 32,2.0 per 1000 binucleated cells
same,"NNK-induced NBUDs, Mean ± SE",Years smoked ≦ 32,0.06 ± 0.04 per 1000 binucleated cells
same,"NNK-induced NBUDs, Median",Years smoked ≦ 32,0.0 per 1000 binucleated cells
same,"NNK-induced NPBs, Mean ± SE",Years smoked ≦ 32,2.36 ± 0.19 per 1000 binucleated cells
same,"NNK-induced NPBs, Median",Years smoked ≦ 32,2.0 per 1000 binucleated cells
same,"Control Subjects, % with 1 or 2 NNK-induced MN",[1],49% and 49.2%
same,"Control Subjects, % with 3 or 4 NNK-induced MN",[1],44.6%
same,"Control Subjects, % with ≧5 NNK-induced MN",[1],6% and 6.2%
same,"Control Subjects, No. with 1 or 2 NNK-induced MN",[1],64
same,"Control Subjects, No. with 3 or 4 NNK-induced MN",[1],58
same,"Control Subjects, No. with ≧5 NNK-induced MN",[1],8
same,"Case Patients, % with 1 or 2 NNK-induced MN",[2],4% and 3.6%
same,"Case Patients, % with 3 or 4 NNK-induced MN",[2],56.1%
same,"Case Patients, No. with 1 or 2 NNK-induced MN",[2],5
same,"Case Patients, No. with 3 or 4 NNK-induced MN",[2],78
same,"Case Patients, No. with ≧5 NNK-induced MN",[2],56
same,"Increase in NNK-induced MN frequency, lung cancer patients over controls",[3],1.6 fold
same,"Increase in NNK-induced NBUD frequency, lung cancer patients over controls",[3],8.9 fold
same,"Increase in NNK-induced NPB frequency, lung cancer patients over controls",[3],3.4 fold
same,"Control Subjects, % with 0 NNK-induced NBUDs",[4],87% and 86.9%
same,"Control Subjects, % with 0 or 2 NNK-induced NPBs",[4],65% and 64.6%
same,"Control Subjects, % with 1 NNK-induced NBUDs",[4],11.5%
same,"Control Subjects, % with 3 or 5 NNK-induced NPBs",[4],35.4%
same,"Control Subjects, No. with 0 NNK-induced NBUDs",[4],113
same,"Control Subjects, No. with 0 or 2 NNK-induced NPBs",[4],84
same,"Control Subjects, No. with 1 NNK-induced NBUDs",[4],15
same,"Control Subjects, No. with 3 or 5 NNK-induced NPBs",[4],46
same,"Control Subjects, No. with ≧2 NNK-induced NBUDs",[4],2
same,"Control Subjects, No. with ≧6 NNK-induced NPBs",[4],0
same,"Case Patients, % with 0 NNK-induced NBUDs",[5],35% and 34.5%
same,"Case Patients, % with 1 NNK-induced NBUDs",[5],42.5%
same,"Case Patients, % with 3 or 5 NNK-induced NPBs",[5],10.8%
same,"Case Patients, No. with 0 NNK-induced NBUDs",[5],48
same,"Case Patients, No. with 0 or 2 NNK-induced NPBs",[5],0
same,"Case Patients, No. with 1 NNK-induced NBUDs",[5],59
same,"Case Patients, No. with 3 or 5 NNK-induced NPBs",[5],15
same,"Case Patients, No. with ≧2 NNK-induced NBUDs",[5],32
same,"Case Patients, No. with ≧6 NNK-induced NPBs",[5],124
